target: T1, glucan synthase (GS) (Candida albicans, UniProt O13428); assay: Glucan synthase inhibition (polymerization assay, 96-well, 3H-UDPG incorporation); type: biochemical; settings: glucan synthase prepared from Candida albicans MY1055; 60 min incubation at 22°C; read-out: Candida Albicans GS IC50 (ng/mL) (converted)
T1 construct: Extraction of GS activity from membranes was performed at a protein concentration of 5 mg/mL in extraction buffer; endogenous in cells; host or cells: Candida albicans MY1055 (membrane fraction, detergent extract, product entrapment)
T1 sequence (O13428 1-1897): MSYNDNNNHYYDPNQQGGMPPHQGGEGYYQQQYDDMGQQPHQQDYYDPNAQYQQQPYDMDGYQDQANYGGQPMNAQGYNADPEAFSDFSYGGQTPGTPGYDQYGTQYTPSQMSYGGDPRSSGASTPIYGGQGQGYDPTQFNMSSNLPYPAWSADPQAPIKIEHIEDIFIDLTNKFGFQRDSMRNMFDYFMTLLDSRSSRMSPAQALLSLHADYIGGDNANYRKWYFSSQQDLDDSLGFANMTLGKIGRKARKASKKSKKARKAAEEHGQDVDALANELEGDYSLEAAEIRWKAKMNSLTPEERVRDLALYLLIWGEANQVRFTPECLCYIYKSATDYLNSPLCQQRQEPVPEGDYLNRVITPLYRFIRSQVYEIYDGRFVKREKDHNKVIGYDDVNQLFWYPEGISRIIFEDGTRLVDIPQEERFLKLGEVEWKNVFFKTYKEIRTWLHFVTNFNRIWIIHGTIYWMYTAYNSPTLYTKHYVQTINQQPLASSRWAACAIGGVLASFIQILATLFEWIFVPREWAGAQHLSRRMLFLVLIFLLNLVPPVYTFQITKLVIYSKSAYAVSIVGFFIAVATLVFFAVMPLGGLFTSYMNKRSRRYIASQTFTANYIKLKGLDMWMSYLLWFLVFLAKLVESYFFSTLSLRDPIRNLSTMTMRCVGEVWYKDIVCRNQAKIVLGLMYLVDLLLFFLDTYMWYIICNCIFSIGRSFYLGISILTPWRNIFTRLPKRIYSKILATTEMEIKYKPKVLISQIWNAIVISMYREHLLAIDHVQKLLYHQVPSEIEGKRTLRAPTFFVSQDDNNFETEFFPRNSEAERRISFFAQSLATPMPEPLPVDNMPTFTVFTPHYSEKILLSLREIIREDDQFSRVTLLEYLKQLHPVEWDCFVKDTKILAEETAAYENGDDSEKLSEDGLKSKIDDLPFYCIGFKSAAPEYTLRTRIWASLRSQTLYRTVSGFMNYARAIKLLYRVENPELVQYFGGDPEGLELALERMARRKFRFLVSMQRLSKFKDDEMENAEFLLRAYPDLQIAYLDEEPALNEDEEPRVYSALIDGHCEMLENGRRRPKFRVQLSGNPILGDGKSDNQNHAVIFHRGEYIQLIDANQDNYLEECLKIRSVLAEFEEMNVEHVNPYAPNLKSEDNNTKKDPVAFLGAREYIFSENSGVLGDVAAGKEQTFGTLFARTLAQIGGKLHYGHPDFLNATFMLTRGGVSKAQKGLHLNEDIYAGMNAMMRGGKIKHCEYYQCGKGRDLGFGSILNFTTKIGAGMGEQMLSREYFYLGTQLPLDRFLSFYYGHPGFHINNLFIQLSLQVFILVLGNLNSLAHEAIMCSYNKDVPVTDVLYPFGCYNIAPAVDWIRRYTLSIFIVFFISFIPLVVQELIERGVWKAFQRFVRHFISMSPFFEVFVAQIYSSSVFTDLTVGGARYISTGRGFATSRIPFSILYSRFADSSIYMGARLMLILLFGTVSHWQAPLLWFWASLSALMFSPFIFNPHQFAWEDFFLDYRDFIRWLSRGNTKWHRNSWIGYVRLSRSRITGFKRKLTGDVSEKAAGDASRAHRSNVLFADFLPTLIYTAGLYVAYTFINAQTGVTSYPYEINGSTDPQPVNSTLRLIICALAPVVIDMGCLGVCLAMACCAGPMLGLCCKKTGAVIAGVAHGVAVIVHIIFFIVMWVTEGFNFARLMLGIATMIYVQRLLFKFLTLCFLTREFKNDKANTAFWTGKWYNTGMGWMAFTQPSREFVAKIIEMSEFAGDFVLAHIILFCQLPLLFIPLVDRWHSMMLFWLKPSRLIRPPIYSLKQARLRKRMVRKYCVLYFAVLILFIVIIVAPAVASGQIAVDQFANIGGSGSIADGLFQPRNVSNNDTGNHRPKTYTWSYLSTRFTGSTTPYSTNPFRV
T1 sequence (O42825 1-195 partner limits assumed): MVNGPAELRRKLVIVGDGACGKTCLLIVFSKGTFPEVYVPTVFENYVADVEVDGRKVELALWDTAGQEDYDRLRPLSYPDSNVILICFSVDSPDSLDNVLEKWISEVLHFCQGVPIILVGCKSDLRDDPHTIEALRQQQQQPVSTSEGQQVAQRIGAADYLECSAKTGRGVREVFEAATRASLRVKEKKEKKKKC
Method: The in vitro evaluation of glucan synthase inhibitory activity of compounds was measured in a polymerization assay in 96-well format. Each well contained 100 µL of ^3H-UDPG at 0.5 mM (6000 to 8000 dpm/nmol), 50 mM HEPES pH 7.5 (Sigma), 10% w/v glycerol (Sigma), 1.5 mg/mL bovine serum albumin (Sigma A 9647. Lot 44H0190), 25 mM KF (Fisher), 1 mM EDTA (Gibco ULTRAPURE), 25 µM GTP-γ-S, enzyme sufficient to give 3 to 6 nmoles incorporation during the 60 min incubation at 22°C, and test compound added from wells in 3-fold serial dilutions in 100% DMSO (1 µL/well). The reaction was stopped by the addition of 100 µL of 20% trichloroacetic acid. Plates were chilled for a minimum of 10 min, and precipitated glucan collected by filtration on GF/C plates (Packard UNIFILTER®-96), washed with 5 cycles of water (about 1 mL/well each cycle) using a Packard FILTERMATE HARVESTER. 40 µL/well scintillation fluid (Packard ULTIMA GOLD TM-XR) was added and the sealed plates counted in a WALLAC BETA counter in top-counting mode at an efficiency of approximately 40%.
Stock solutions were stored at 10 mg/mL in DMSO at -20°C. For each new enzyme preparation, the initial titration performed started at 1 mg/mL, which was prepared by making a 10-fold dilution in DMSO (5 µL to 50 µL). 40 µL of this stock was placed in column 12 of a round-bottomed 96-well microtiter plate. 40 µL DMSO was added to columns 1 to 11 in the same row and ten 3-fold serial dilutions performed, by transferring 20 µL from column 12 to column 11 etc., with 4 mixings before each transfer. No test compound was transferred to from column 2 to column 1. Duplicate aliquots of 1 µL of all 12 dilutions were then transferred to the side walls of a 96-well Bioblock 1.1 mL plate (Fisher brand) to create two rows.
Graphs of the primary data were created in PRISM software (the average of two determinations) using PRISM's curve fitting program (sigmoidal dose response non-linear regression). The amount of compound required to inhibit glucan synthase activity by 50% in this assay (IC50 - ng/mL) was calculated.
Routine analysis was performed with glucan synthase (GS) prepared from Candida albicans MY1055 by the following procedure: MY1055 was grown in 10 liters YPD medium (10 g yeast extract, 20 g tryptone, 20 g glucose per liter) with vigorous shaking at 30°C, to early stationary phase. Cells were harvested by centrifugation, the pellet was washed and frozen at -70°C until breakage. Thawed pellets were shaken with an equal volume of breakage buffer (50 mM HEPES pH 7.4, 10% glycerol, 1 mM EDTA, 1 mM PMSF, 1mM DTT) and 4 times their weight of 0.5 mm acid washed glass beads for 2 hours at 4°C. Extent of breakage was assessed visually at 40x magnification. After low speed centrifugation to remove cell debris, the supernatant was centrifuged at 100,000 x g for 60 min. to separate membranes plus ribosomes from cytoplasmic components. Membranes were further washed two additional times with breakage buffer using the same centrifugation conditions and finally suspended in breakage buffer at 25 to 30 mg/mL protein (Biorad) for storage at -70°C. Extraction of GS activity from membranes was performed at a protein concentration of 5 mg/mL in extraction buffer (50mM NaPO4 pH 7.5, 0.1 M KCl, 0.1M Na citrate, 20% glycerol, 5 µM GTP-γ-S, 1mM DTT, 1 mM PMSF, 3 µg/mL pepstatin) plus 0.25% W1 by gentle mixing at 4°C for 60 min, followed by centrifugation at 100,000 x g for 60 min. After centrifugation, clear supernatant was removed from a pellet consisting of a hard layer usually with small amounts of gelatinous unextracted membranes above it.
Trapping was initiated immediately by 5-fold dilution in trapping buffer (50 mM HEPES pH 7.5, 10 mM KF, 1 mM EDTA, 2 mg/mL BSA) plus 2.5 mM UDPG and 10µM GTP-γ-S. After incubation at 25°C for 60 to 90 minutes, glucan was harvested by low speed centrifugation (3,000 x g, 10 min). […]

Question: `CCC(N)(CC)CO[C@H]1[C@H](n2ncnc2C(=O)NC)C[C@@]23COC[C@]1(C)[C@@H]2CC[C@H]1C3=CC[C@@]2(C)[C@H](C(=O)O)[C@@](C)([C@H](C)C(C)C)CC[C@]12C` [Example 101, (1S,4aR,6aS,7R,8R,10aR,10bR,12aR,14R,15R)-15-(2-amino-2-ethylbutoxy)-8-[(1R)-1,2-dimethylpropyl]-14-[5-[(methylamino)carbonyl]-1H-1,2,4-triazol-1-yl]-1,6,6a,7,8,9,10,10a,10b,11,12,12a-dodecahydro-1,6a,8,10a-tetramethyl-4H-1,4a-propano-2H-phenanthro[1,2-c]pyran-7-carboxylic acid] was tested. Which IC50 did it give?
Answer: 18.7 nM

Question: For `CCN[C@@](C)(CO[C@H]1[C@H](n2ncnc2C(N)=O)C[C@@]23COC[C@]1(C)[C@@H]2CC[C@H]1C3=CC[C@@]2(C)[C@H](C(=O)O)[C@@](C)([C@H](C)C(C)C)CC[C@]12C)C(C)C` [Example 43, (1S,4aR,6aS,7R,8R,10aR,10bR,12aR,14R,15R)-14-[5-(aminocarbonyl)-1H-1,2,4-triazol-1-yl]-8-[(1R)-1,2-dimethylpropyl]-15-[[(2R)-2-(ethylamino)-2,3-dimethylbutyl]oxy]-1,6,6a,7,8,9,10,10a,10b,11,12,12a-dodecahydro-1,6a,8,10a-tetramethyl-4H-1,4a-propano-2H-phenanthro[1,2-c]pyran-7-carboxylic acid], which IC50 is on record?
Answer: 15.5 nM

Question: For `CC(C)[C@@H](C)[C@@]1(C)CC[C@]2(C)[C@H]3CC[C@@H]4[C@@]5(COC[C@@]4(C)[C@@H](OC[C@](C)(N)C(C)(C)C)[C@H](n4ncnc4-c4ccncc4F)C5)C3=CC[C@@]2(C)[C@@H]1C(=O)O` [Example 208, (1S,4aR,6aS,7R,8R,10aR,10bR,12aR,14R,15R)-15-[[(2R)-2-amino-2,3,3-trimethylbutyl]oxy]-8-[(1R)-1,2-dimethylpropyl]-14-[5-(3-fluoro-4-pyridinyl)-1H-1,2,4-triazol-1-yl]-1,6,6a,7,8,9,10,10a,10b,11,12,12a-dodecahydro-1,6a,8,10a-tetramethyl-4H-1,4a-propano-2H-phenanthro[1,2-c]pyran-7-carboxylic acid], which IC50 is on record?
Answer: 0.936 nM

Question: How did the IC50 turn out when `CC(C)[C@@H](C)[C@@]1(C)CC[C@]2(C)[C@H]3CC[C@@H]4[C@@]5(COC[C@@]4(C)[C@@H](OC[C@](C)(N)C(C)C)[C@H](n4ncnc4C(=O)N(C)C)C5)C3=CC[C@@]2(C)[C@@H]1C(=O)O` [Example 50, (1S,4aR,6aS,7R,8R,10aR,10bR,12aR,14R,15R)-15-[[(2R)-2-amino-2,3-dimethylbutyl]oxy]-14-[5-[(dimethylamino)carbonyl]-1H-1,2,4-triazol-1-yl]-8-[(1R)-1,2-dimethylpropyl]-1,6,6a,7,8,9,10,10a,10b,11,12,12a-dodecahydro-1,6a,8,10a-tetramethyl-4H-1,4a-propano-2H-phenanthro[1,2-c]pyran-7-carboxylic acid] was run?
Answer: 12.7 nM

Question: How did the IC50 turn out when `CC(C)[C@@H](C)[C@@]1(C)CC[C@]2(C)[C@H]3CC[C@@H]4[C@@]5(COC[C@@]4(C)[C@@H](OC[C@](C)(N)C(C)C)[C@H](n4ncnc4-c4ccncn4)C5)C3=CC[C@@]2(C)[C@@H]1C(=O)O` [Example 190, (1S,4aR,6aS,7R,8R,10aR,10bR,12aR,14R,15R)-15-[[(2R)-2-amino-2,3-dimethylbutyl]oxy]-8-[(1R)-1,2-dimethylpropyl]-14-[5-(4-pyrimidinyl)-1H-1,2,4-triazol-1-yl]-1,6,6a,7,8,9,10,10a,10b,11,12,12a-dodecahydro-1,6a,8,10a-tetramethyl-4H-1,4a-propano-2H-phenanthro[1,2-c]pyran-7-carboxylic acid] was run?
Answer: 4.18 nM

Question: How did the IC50 turn out when `CC(C)[C@@H](C)[C@@]1(C)CC[C@]2(C)[C@H]3CC[C@@H]4[C@@]5(COC[C@@]4(C)[C@@H](OC[C@](C)(N)C(C)(C)C)[C@H](n4ncnc4-c4ccc[n+]([O-])c4)C5)C3=CC[C@@]2(C)[C@@H]1C(=O)O` [Example 261, (1S,4aR,6aS,7R,8R,10aR,10bR,12aR,14R,15R)-15-[[(2R)-2-amino-2,3,3-trimethylbutyl]oxy]-8-[(1R)-1,2-dimethylpropyl]-14-[5-(1-oxido-3-pyridinyl)-1H-1,2,4-triazol-1-yl]-1,6,6a,7,8,9,10,10a,10b,11,12,12a-dodecahydro-1,6a,8,10a-tetramethyl-4H-1,4a-propano-2H-phenanthro[1,2-c]pyran-7-carboxylic acid] was run?
Answer: 2.68 nM

Reference: patent EP2326172B1, “ANTIFUNGAL AGENTS” (Scynexis, Inc., priority 2008, dated 2010)
